Here are results for two compounds from PMC11212140, “Molecular Bidents with Two Electrophilic Warheads as a New Pharmacological Modality” (ACS Central Science, 2024).

SMILES strings stand for the structures.

The test system of one experiment is T1, EGFR.
T1 construct: expressed in transfected cells; host or cells: Ba/F3 (murine pro-B cells transduced with an EGFR mutant expression vector)
Put plainly: Cellular target engagement assays (competitive pulldown). The format is cell-based. The following applies: EGFR^L858R Ba/F3 cells, 6 h pretreatment. On the procedure: Figure 4 ZNL-0056 covalently engages Cys775 and Cys797 in EGFR Ba/F3 cells. (A) Carton of competition EGFR pulldown strategy to test covalent EGFR engagement in cells. (B) Competitive pulldown assay in EGFR^L858R Ba/F3 cells treated with ZNL-0056 at the indicated concentrations for 6 h. Cell lysates were incubated with bio-osimertinib. (C) Competitive pulldown assay in EGFR^L858R Ba/F3 cells treated with ZNL-0056 at the indicated concentrations for 6 h. Cell lysates were incubated with bio-ZNL-0013, which competes for the binding pocket of the target kinase. (D) Competitive pulldown assay in EGFR^L858R/C797S Ba/F3 cells treated with ZNL-0056 at the indicated concentrations for 6 h. Cell lysates were incubated with bio-ZNL-0013, which competes for the binding pocket of the target kinase. Western blotting showing the pulldown (PD) or input (total lysate) of EGFR. […]
treatment. Cell viability was determined by using CellTiter-Glo (Promega #G7571) according to the manufacturer’s instructions, measuring luminescence using an Envision plate-reader (PerkinElmer Inc.). […]
After 6 hours treatment, cells were pelleted, washed with PBS once and lysed with IP lysis buffer (25mMTris-HCl pH 7.4, 150mM NaCl, 1 mM EDTA, 1% NP-40 and 5% glycerol) (Thermo Fisher Scientific, Cat#87788) containing protease/phosphatase inhibitor cocktail (Roche). The protein concentrations were measured by BCA analysis (Pierce). […]

In a further experiment the target is MEK5 (Homo sapiens, UniProt Q13163). Put plainly: LanthaScreen Binding activity assay. The following applies: read-out: IC50 (nM) against MEK5. The text has this:
Table S2. Biochemical activities against a panel of kinase targets […]
aIC50 (nM) against EGFR L858R, BTK, JAK3, ITK and BLK were obtained with Z’-LYTE biochemical assay. bIC50 (nM) against MEK5 was obtained with LanthaScreen Binding activity assay. c Kd (nM) of MKK7 were obtained from KdELECT assays (DiscoverX). […]
(1 picture or pasted object on this page, not shown here)

Experiment [1] relates to panel of 468 human kinases. Conditions: 1 μM.
Protocol: KinomeScan profiling for ZNL-0056 at 1 μM against a panel of 468 human kinases. The results
for the binding interactions are reported as “% Ctrl”, where larger circles indicate stronger hits.
The selectivity score was defined as the ratio of the number of kinases inhibited to a specified
percentage versus the total number of kinases. For this experiment, specified percent inhibition
The subject of another experiment is T2, PRP4.
T2 construct: purchased ActivX Biosciences (KiNativ)
Briefly: KiNativ profiling in H3255 cells. The experiment is classed as cell-based, human. Conditions: 2.5 µM; Lys2; CNILHADIKPDNILVNESK

Sequence of MEK5 (Q13163 whole entry, species assumed): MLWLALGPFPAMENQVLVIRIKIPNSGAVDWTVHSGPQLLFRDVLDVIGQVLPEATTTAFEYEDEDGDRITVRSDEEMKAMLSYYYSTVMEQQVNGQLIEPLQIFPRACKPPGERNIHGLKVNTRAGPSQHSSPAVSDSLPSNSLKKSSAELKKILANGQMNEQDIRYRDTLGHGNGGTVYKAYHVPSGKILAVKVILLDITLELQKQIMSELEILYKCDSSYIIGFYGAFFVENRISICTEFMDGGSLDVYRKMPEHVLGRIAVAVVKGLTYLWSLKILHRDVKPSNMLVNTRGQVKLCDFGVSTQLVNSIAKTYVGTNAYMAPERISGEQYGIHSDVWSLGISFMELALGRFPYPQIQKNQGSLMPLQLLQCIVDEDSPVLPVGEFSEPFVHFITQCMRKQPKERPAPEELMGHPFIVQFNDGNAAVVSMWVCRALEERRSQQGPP

Consider `C=CC(=O)Nc1cc(C(=O)Nc2nc3cccc(C)c3n2[C@@H]2CCCCN(C(=O)C=C)C2)cs1` [ZNL-0056], for which the “prevention of EGFR binding to osimertinib-biotin target-engagement probe” value in the experiment on EGFR is “dose-dependent manner”. Further, the concentration for half-maximal inhibition (IC50) at MEK5 was found to be 2500 nM. For the same compound, the “selectivity score S (10)” value in experiment [1] is given as 0.05.
Take `C=CC(=O)Nc1cc(Nc2nccc(-c3cn(C)c4ccccc34)n2)c(OC)cc1N(C)CCN(C)C` [Osimertinib, osimertinib, reference compound]: in the experiment with PRP4, the Inhibition is -3.8%.
